Values joined by “and” are separate entries in the source; they are usually repeats but may differ in a detail not shown here. Equal entries are not always repeated. Numbers after ± are expanded uncertainties.
Assay: molar heat capacity at constant pressure
Settings: 101.33 kPa, Liquid, Flow calorimetry

Structure (SMILES)	molar heat capacity at constant pressure (260.64 K)	molar heat capacity at constant pressure (309.14 K)	molar heat capacity at constant pressure (319.35 K)	molar heat capacity at constant pressure (329.56 K)	molar heat capacity at constant pressure (268.3 K)	molar heat capacity at constant pressure (278.51 K)	molar heat capacity at constant pressure (288.72 K)	molar heat capacity at constant pressure (298.93 K)	molar heat capacity at constant pressure (339.77 K)	also measured
ClC=C(Cl)Cl [trichloroethene]	126.71 ± 2.5 J/K/mol and 126.63 ± 2.5 J/K/mol	129.21 ± 2.6 J/K/mol and 129.04 ± 2.6 J/K/mol and 130.29 ± 2.6 J/K/mol	130.29 ± 2.6 J/K/mol and 131.12 ± 2.6 J/K/mol	130.95 ± 2.6 J/K/mol and 131.12 ± 2.6 J/K/mol						molar heat capacity at constant pressure (265.75 K): 126.71 ± 2.5 J/K/mol and 126.8 ± 2.5 J/K/mol and 126.96 ± 2.5 J/K/mol; molar heat capacity at constant pressure (270.85 K): 126.96 ± 2.5 J/K/mol [middle of 4 runs]; molar heat capacity at constant pressure (275.96 K): 127.13 ± 2.5 J/K/mol [middle of 4 runs]; molar heat capacity at constant pressure (281.06 K): 127.38 ± 2.5 J/K/mol and 127.46 ± 2.6 J/K/mol and 127.79 ± 2.6 J/K/mol; molar heat capacity at constant pressure (286.17 K): 127.96 ± 2.6 J/K/mol and 127.88 ± 2.6 J/K/mol and 128.38 ± 2.6 J/K/mol; molar heat capacity at constant pressure (291.27 K): 128.38 ± 2.6 J/K/mol [middle of 4 runs]; molar heat capacity at constant pressure (296.38 K): 128.54 ± 2.6 J/K/mol [middle of 4 runs]; molar heat capacity at constant pressure (301.48 K): 128.96 ± 2.6 J/K/mol [middle of 4 runs]
Cl/C=C/Cl [(E)-1,2-dichloroethene]		114.49 ± 2.3 J/K/mol [middle of 4 runs]			112.74 ± 2.3 J/K/mol [middle of 4 runs]	112.83 ± 2.3 J/K/mol [middle of 4 runs]	113.41 ± 2.3 J/K/mol [middle of 4 runs]	113.99 ± 2.3 J/K/mol [middle of 4 runs]		
CC(C)(Cl)Cl [2,2-dichloropropane]	150.33 ± 3 J/K/mol and 150.49 ± 3 J/K/mol and 150.24 ± 3 J/K/mol	157.39 ± 3.2 J/K/mol and 157.14 ± 3.1 J/K/mol and 156.98 ± 3.1 J/K/mol	159.22 ± 3.2 J/K/mol and 158.81 ± 3.2 J/K/mol and 158.89 ± 3.2 J/K/mol	161.13 ± 3.2 J/K/mol and 160.22 ± 3.2 J/K/mol	151.41 ± 3 J/K/mol and 151.24 ± 3 J/K/mol and 150.99 ± 3 J/K/mol		153.98 ± 3.1 J/K/mol and 153.82 ± 3.1 J/K/mol and 154.07 ± 3.1 J/K/mol	155.65 ± 3.1 J/K/mol and 154.98 ± 3.1 J/K/mol		molar heat capacity at constant pressure (278.52 K): 152.32 ± 3 J/K/mol and 152.24 ± 3 J/K/mol
Cl/C=C\Cl [(Z)-1,2-dichloroethene]		113.91 ± 2.3 J/K/mol and 113.74 ± 2.3 J/K/mol			110.58 ± 2.2 J/K/mol and 110.75 ± 2.2 J/K/mol	111.08 ± 2.2 J/K/mol and 111 ± 2.2 J/K/mol	111.91 ± 2.2 J/K/mol and 111.75 ± 2.2 J/K/mol	112.99 ± 2.3 J/K/mol and 112.66 ± 2.3 J/K/mol and 112.49 ± 2.3 J/K/mol		molar heat capacity at constant pressure (258.09 K): 110.33 ± 2.2 J/K/mol and 110.08 ± 2.2 J/K/mol; molar heat capacity at constant pressure (263.2 K): 110.33 ± 2.2 J/K/mol and 110.42 ± 2.2 J/K/mol; molar heat capacity at constant pressure (273.41 K): 111 ± 2.2 J/K/mol; molar heat capacity at constant pressure (283.62 K): 111.41 ± 2.2 J/K/mol and 111.58 ± 2.2 J/K/mol; molar heat capacity at constant pressure (293.83 K): 112.58 ± 2.3 J/K/mol [middle of 4 runs]; molar heat capacity at constant pressure (304.04 K): 113.41 ± 2.3 J/K/mol and 113.49 ± 2.3 J/K/mol
CCC(Cl)Cl [1,1-dichloropropane]		155.23 ± 3.1 J/K/mol and 154.57 ± 3.1 J/K/mol and 154.15 ± 3.1 J/K/mol	155.9 ± 3.1 J/K/mol and 157.73 ± 3.2 J/K/mol and 155.56 ± 3.1 J/K/mol	157.23 ± 3.1 J/K/mol and 157.31 ± 3.1 J/K/mol and 157.64 ± 3.2 J/K/mol	148.83 ± 3 J/K/mol and 149.66 ± 3 J/K/mol	150.33 ± 3 J/K/mol and 150.24 ± 3 J/K/mol and 149.99 ± 3 J/K/mol	151.82 ± 3 J/K/mol and 151.99 ± 3 J/K/mol and 152.4 ± 3.1 J/K/mol	152.82 ± 3.1 J/K/mol and 153.65 ± 3.1 J/K/mol	158.97 ± 3.2 J/K/mol and 159.06 ± 3.2 J/K/mol and 159.31 ± 3.2 J/K/mol	molar heat capacity at constant pressure (268.31 K): 149.49 ± 3 J/K/mol
ClC(Cl)(Cl)c1ccccc1 [(trichloromethyl)benzene]	209.61 ± 4.2 J/K/mol and 209.36 ± 4.2 J/K/mol and 209.11 ± 4.2 J/K/mol	220.75 ± 4.4 J/K/mol	223.83 ± 4.5 J/K/mol	226.49 ± 4.5 J/K/mol					228.56 ± 4.6 J/K/mol	molar heat capacity at constant pressure (265.75 K): 210.94 ± 4.2 J/K/mol and 210.44 ± 4.2 J/K/mol and 210.27 ± 4.2 J/K/mol; molar heat capacity at constant pressure (270.85 K): 211.44 ± 4.2 J/K/mol and 211.35 ± 4.2 J/K/mol and 211.19 ± 4.2 J/K/mol; molar heat capacity at constant pressure (275.96 K): 212.52 ± 4.3 J/K/mol and 212.77 ± 4.3 J/K/mol; molar heat capacity at constant pressure (281.06 K): 214.18 ± 4.3 J/K/mol and 213.93 ± 4.3 J/K/mol; molar heat capacity at constant pressure (286.17 K): 215.59 ± 4.3 J/K/mol and 215.34 ± 4.3 J/K/mol; molar heat capacity at constant pressure (291.27 K): 217.09 ± 4.3 J/K/mol and 217.01 ± 4.3 J/K/mol and 216.92 ± 4.3 J/K/mol; molar heat capacity at constant pressure (296.38 K): 217.76 ± 4.4 J/K/mol and 217.92 ± 4.4 J/K/mol and 218.01 ± 4.4 J/K/mol; molar heat capacity at constant pressure (301.48 K): 219.34 ± 4.4 J/K/mol and 219.17 ± 4.4 J/K/mol and 219.25 ± 4.4 J/K/mol; molar heat capacity at constant pressure (349.98 K): 230.89 ± 4.6 J/K/mol
CC(Cl)CCl (configuration not stated) [1,2-dichloropropane]		158.06 ± 3.2 J/K/mol and 157.73 ± 3.2 J/K/mol	159.39 ± 3.2 J/K/mol and 159.22 ± 3.2 J/K/mol	161.05 ± 3.2 J/K/mol and 161.22 ± 3.2 J/K/mol	153.32 ± 3.1 J/K/mol and 152.99 ± 3.1 J/K/mol	154.15 ± 3.1 J/K/mol and 153.9 ± 3.1 J/K/mol	155.4 ± 3.1 J/K/mol and 155.15 ± 3.1 J/K/mol	156.81 ± 3.1 J/K/mol and 156.64 ± 3.1 J/K/mol	162.8 ± 3.3 J/K/mol	

Source: the NIST ThermoML archive (doi:10.1016/j.fluid.2012.09.001)
